Assay results as given in US7399479B2, “Microemulsions, especially for skin or hair treatment” (Wella AG, priority 2004, dated 2008).

System: human keratinocyte cell line HaCaT
Experiment: Neutral Red Uptake (NRU) cytotoxicity test with HaCaT cells
Format: cell-based
Source text: NRU50 values are the NRU values used in the present invention. They characterize the concentration of a substance or composition, at which the up-take of the dye neutral red is reduced to about 50% in human keratinocyte cells. Neutral red (3-amino-7-dimethylamino-2-methyl phenazine hydrochloride) is a weak cationic dye, which easily diffuses from an outer medium through a cell membrane separating individual cells into the cell interior. Changes in the cell surface or the cell membrane by potentially harmful substances reduce the dye uptake and the retention of the dye in the cell. A high NRU50 value means a slight cell-damaging action and low cytotoxicity and is a hint of an improved eye compatibility of the tested substance or composition.
The neutral red (3-amino-7-dimethylamino-2-methyl phenazine hydrochloride) taken up by the cells exposed to the test substance is extracted and measured spectrophotometrically at 540 nm. Toxicological effects cause a reduction in the amount of taken-up neutral red in comparison to separate untreated control cells. The concentration of the test substance, which leads to a reduction of the up-taken and bound neutral red amount of about 50% in comparison to the control cells, is the NRU50-value.
The HaCaT cells are grown in Dulbecco's modified Eagle's medium with 2 mM L-glutamin, 10% (v/v) foetal calf serum (FCS), 100 IU penicillin and 100 μg/ml streptomycin added in an atmosphere having 95% humidity and 5% CO2.
In pretests an approximate NRU50 value is determined with 8 different concentrations of the test substance. On this basis eight suitable concentrations around these approximate values are selected for the final measurements. The measurement is repeated with an independent batch with equal concentrations. Sodium lauryl sulfate with concentrations of 50, 25, 10 and 1 μg/ml is used as reference substance.
Approximately 2*10^4 HaCaT cells in 250 μl growth medium per receptacle are placed in 60 central receptacles of microtiter plates each with 96 receptacles. The corner receptacles act as controls and contain only the growth medium. The plates are incubated for 24 hours at 37° C. in a moist atmosphere with 5% CO2 and 95% air. The culture medium is removed and either replaced by pure treatment medium or by treatment medium containing the various concentration of the test substance to be tested or the reference substance.
After an acting time of 24 hours the treatment medium is replaced by storage medium, which contains 50 μg/ml of neutral red. The plates are placed again in the incubator for three hours. After that the medium is removed, the cells washed with a fixative (1% formaldehyde, 1% calcium chloride) and 100 μl of an extraction solution (1% acetic acid in 50% ethanol) is added to each receptacle for dye extraction. After 20 minutes the absorption is measured at 540 nm with a microplate reader. Concentration/effectiveness diagrams are drawn or plotted, expressed as percent viability of the negative control cells (CC) relative to the respective test concentrations from the average values and after correction with the null value from the BC receptacles.

Ceteareth-20 [EUMULGIN® B2] was tested. Which NRU did it give?
The NRU was 5.8 µg/mL.

For Oleth-5 [EUMULGIN® 05], which NRU is on record?
Its NRU is 7.8 µg/mL.

How did the NRU turn out when Oleth-20 [VOLPO® N20] was run?
Its NRU is 6.2 µg/mL.

For “PEG-40 Hydrogenated Castor Oil [CREMOPHOR® RH 410]”, which NRU50 is on record?
Its NRU50 is 188 µg/mL.

“PEG-60 Hydrogenated Castor Oil [CREMOPHOR® CO60]” was tested. Which NRU50 did it give?
The NRU50 was 203 µg/mL.
